Measurements as given in patent US20240360107A1, “AN EIF4A INHIBITOR WITH A NOVEL MECHANISM OF ACTION” (ARIZONA BOARD OF REGENTS ON BEHALF OF THE UNIVERSITY OF …, priority 2021, published 2024).
“Also recorded” adds a separate entry of the source.

Experiments:
eIF4A [1] = molecular target: T1, eIF4A (Homo sapiens, UniProt P60842); assay: RNA-stimulated malachite green ATPase assay; format: biochemical; parameters: 6xHis with TEV protease site (N, cleaved yes); made in house; host or cells: E. coli BL21-CodonPlus; conditions: for potency in the eIF4A ATPase assay (in words): comparison within the series
Experimental: Human eIF4A protein was produced recombinantly and a greater than 100,000-compound screen for inhibitors was completed using a malachite green ATPase assay (FIG. 11A). […] A stable mixture of yeast RNAs was added in an effort to improve this system and create a more biologically relevant eIF4A assay. eIF4A ATPase activity was accelerated without a statistically significant increase in the background signal in the presence of this RNA (FIG. 11B), and the new conditions gave excellent statistical parameters in a 384-well plate format (FIG. 11C).
ATPase assay. Recombinant WT or mutant eIF4A was added to a clear bottom 384 well plate (Greiner) in ATPase buffer (20 mM Tris pH 7.4, 80 mM KCl, 2.5 mM MgCl2, 1 mM DTT, 1% glycerol). Compounds were added and the plate was incubated at 37° C. for 20 min. ATP/RNA solution was added to afford a 20 μL per well reaction volume with 750 nM eIF4A, 250 μM ATP, and 0.25 mg/mL Yeast RNA (Sigma) for the initial screen and dose responses, and varying concentrations of ATP and RNA for the kinetic assays. The plate was incubated for 4 h at 37° C. for the initial screen and dose responses, and at seven time points (1 hour-7 hours) for kinetic assays. 0.04% v/v (final concentration) Tween-20 was added to a Malachite Green solution, and the Malachite Green (40 μL per well) was added. The solution was incubated for 5 minutes at room temperature and Absorbance at 660 nm was read on a SpectraMax iD5 plate reader (Molecular Devices).
Target sequence in this assay (P60842 whole entry): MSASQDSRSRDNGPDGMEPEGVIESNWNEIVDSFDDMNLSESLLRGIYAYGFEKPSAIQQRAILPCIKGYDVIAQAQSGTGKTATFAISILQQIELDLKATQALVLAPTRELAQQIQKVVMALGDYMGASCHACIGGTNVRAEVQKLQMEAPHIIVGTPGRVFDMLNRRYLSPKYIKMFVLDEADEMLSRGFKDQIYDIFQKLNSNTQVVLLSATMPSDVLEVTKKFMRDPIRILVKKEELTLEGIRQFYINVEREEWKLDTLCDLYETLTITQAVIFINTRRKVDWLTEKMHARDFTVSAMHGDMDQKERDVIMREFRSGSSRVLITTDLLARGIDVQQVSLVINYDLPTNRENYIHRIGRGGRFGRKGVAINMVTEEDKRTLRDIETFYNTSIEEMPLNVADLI

[2] = system: BJAB Burkitt lymphoma cells; assay: CellTiter-Glo Luminescent Cell Viability assay; format: cell-based; conditions: 72 h; for effect on BJAB cell viability: top concentration 10 uM
Experimental: Compounds 1 and compound 28 were evaluated in a CellTiter-Glo (CTG) Luminescence cell viability assay in BJAB Burkitt lymphoma cells that are known to be sensitive to eIF4A inhibition. This assay quantitates the number of living, metabolically active cells by measuring their ATP levels.
Cell viability assay. BJAB lymphoma cells were plated in quadruplicate at 5,000 cells/well in serial dilutions of drug ranging two logs with the top concentration of compounds tested at 10 uM. Viability was measured after 72 h using Cell Titer Glo (Promega G7573) following the manufacturer's protocol. Luminescence was detected on the BioTek HT Synergy plate reader and values were normalized to vehicle-treated (DMSO) wells. Silvestrol was included as a positive control (not shown).

[3] = system: HCV IRES-dependent translation of Renilla luciferase; assay: in vitro translation of bicistronic luciferase reporter in rabbit reticulocyte lysate, Renilla luciferase; format: biochemical; conditions: Cycloheximide 600 μM, Silvestrol 100 nM
Description: (§1) A bicistronic luciferase reporter ([…]) (FIG. 7B, top) was programmed into rabbit reticulocyte lysates, cellular extracts capable of performing both cap-dependent and Hepatitis C virus (HCV) internal ribosomal entry site (IRES)-mediated translation. eIF4A is the enzymatic driver of cap-dependent translation and is not involved in translation through HCV IRES. Compounds that inhibit eIF4A should inhibit cap-dependent translation of firefly (FF) luciferase while leaving IRES-mediated translation of Renilla (Ren) luciferase relatively unaffected. The inhibitory activities of cycloheximide, silvestrol, and 28 were assessed in this in vitro translation assay (FIG. 7B, bottom). […] The ability of compound 28 to preferentially target cap-dependent translation in a similar manner as silvestrol provides promising evidence that 28 inhibits eIF4A and not other proteins in the general translational machinery.
(§2) The dual-luciferase reporter plasmid pSP/(CAG)33/FF/HCV/Ren-pA51 was linearized with BamHI and subsequently in vitro transcribed using the Promega mMessage mMachine SP6 transcription kit, according to manufacturer's specifications. RNA was precipitated with LiCI and resuspended in H2O for use in in vitro translation experiments. Rabbit reticulocyte lysate (RRL) (nuclease-treated, Promega) was used to assess inhibitory effects of 28 on translation of the dual-reporter. Briefly, a reaction consisting of 50% RRL, 30 ng/μL reporter RNA, 10 μM Amino Acid Mixture Minus Methionine, 10 μM Amino Acid Mixture Minus Leucine, […], 1 U/μL RNAseOut (Thermo), and drug (final DMSO concentration 1%) were incubated at 30° C. for 90 minutes. The reaction was quenched with 50 μL 1× Passive Lysis Buffer (Promega), 10 μL of the mix was transferred to a 96-well white plate (Cellstar), and the Dual-Reporter Luciferase Assay System (Promega) was used to generate luminescence according to the manufacturer's instructions. Luminescence was detected using a plate reader (BioTek HT Synergy).

[4] = system: cap-dependent translation of firefly luciferase; assay: in vitro translation of bicistronic luciferase reporter in rabbit reticulocyte lysate, firefly luciferase; format: biochemical; conditions: Cycloheximide 600 μM, Silvestrol 100 nM
Description: as §1, §2

eIF4A [5] = molecular target: T1, eIF4A; assay: Cellular Thermal Shift Assay (CETSA) in A549 cells; format: cell-based; parameters: endogenous in cells; host or cells: A549 cells; conditions: 90 min, 55° C., silvestrol 100 nM
Experimental: In CETSA, thermal stability of a protein is assessed by heating cells and then separating insoluble, aggregated, or denatured proteins from soluble proteins through supernatant/pellet fractionation. Levels of the protein of interest (eIF4A) remaining in the soluble fraction are then measured by western blot. The principle of CETSA is similar to differential scanning fluorimetry (DSF), in that thermal stability and solubility of a protein increases upon binding a ligand.
Cellular Thermal Shift Assay (CETSA). A549 cells were seeded into wells in 6-well plates and on the following day were exposed to 28 or silvestrol (100 nM) for 90 min. Cells were harvested, resuspended in 50 μL DMEM, and dispensed into thin-walled PCR tubes. Cells were subjected to 3 min of heat at 55° C. in a thermocycler (miniPCR). After heating, cells were left to cool for 3 min and then snap-frozen on dry ice. Cells were subjected to 3 rapid freeze thaws with 15 seconds of vortexing after each thaw. After the first thaw, 1 μL of a dissolved Pierce protease inhibitor tablet (ThermoFisher—A32963) was added to the cell lysate. Cell lysates were centrifuged at 20,000×g for 20 min. […] All immunoblot images were taken using the Azure 600 imaging system (Azure Biosystems) and analyzed using ImageJ 1.51s (NIH). […]
Target sequence in this assay (P60842 2-406): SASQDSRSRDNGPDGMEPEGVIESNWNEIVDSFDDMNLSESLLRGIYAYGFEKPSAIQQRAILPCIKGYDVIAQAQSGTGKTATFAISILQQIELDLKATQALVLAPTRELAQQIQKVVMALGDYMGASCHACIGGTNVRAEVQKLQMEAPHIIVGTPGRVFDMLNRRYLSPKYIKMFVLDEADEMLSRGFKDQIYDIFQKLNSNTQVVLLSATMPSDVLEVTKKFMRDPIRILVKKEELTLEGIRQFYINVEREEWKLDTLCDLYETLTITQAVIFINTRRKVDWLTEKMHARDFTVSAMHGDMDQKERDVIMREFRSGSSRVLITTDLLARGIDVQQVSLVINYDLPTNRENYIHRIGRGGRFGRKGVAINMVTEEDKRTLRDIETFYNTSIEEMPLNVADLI

SMILES	potency in the eIF4A ATPase assay (in words) (eIF4A [1])	effect on BJAB cell viability [2]	further results
CCCCc1ccc(-c2ccc(-c3cc(C(=O)O)c4ccc(Cl)cc4n3)o2)cc1 [Compound 9, 2-(5-(4-butylphenyl)furan-2-yl)-7-chloroquinoline-4-carboxylic acid]	moderate potency; also recorded: performing the best in the ATPase assay of any inhibitor produced	–	IC50 (eIF4A [1]; 750 nM eIF4A, 250 μM ATP, 0.25 mg/mL Yeast RNA, 4 h at 37° C.): 21.7 ± 3.39 µM; EC50 ([2]; Homo sapiens, CellTiter-Glo, n=4): 4.29 ± 0.23 µM
CCCCc1ccc(-c2ccc(-c3cc(C(=O)O)c4cc(N)ccc4n3)o2)cc1 [Compound 24, 6-amino-2-(5-(4-butylphenyl)furan-2-yl)quinoline-4-carboxylic acid]	lose potency in the ATPase assay; also recorded: major losses in potency	do not decrease BJAB cellular viability	–
CCCCc1ccc(-c2ccc(-c3cc(C(=O)O)c4cc(NC(C)=O)ccc4n3)o2)cc1 [Compound 25, 6-acetamido-2-(5-(4-butylphenyl)furan-2-yl)quinoline-4-carboxylic acid]	lose potency in the ATPase assay; also recorded: major losses in potency	do not decrease BJAB cellular viability	–
CCCCc1ccc(-c2ccc(-c3cc(C(=O)OCC)c4cc([N+](=O)[O-])ccc4n3)o2)cc1 [Compound 29, ethyl 2-(5-(4-butylphenyl)furan-2-yl)-6-nitroquinoline-4-carboxylate]	not potent in the ATPase assay; also recorded: lost all eIF4A potency	did not inhibit cellular viability	–
CC(C)(C)OC(=O)Nc1ccc(-c2ccc(-c3cc(C(=O)O)c4cc([N+](=O)[O-])ccc4n3)o2)cc1 [Compound 45, 2-(5-(4-((tert-butoxycarbonyl)amino)phenyl)furan-2-yl)-6-nitroquinoline-4-carboxylic acid]	low potency	–	–
Nc1ccc(-c2ccc(-c3cc(C(=O)O)c4cc([N+](=O)[O-])ccc4n3)o2)cc1 [Compound 46, 2-(5-(4-aminophenyl)furan-2-yl)-6-nitroquinoline-4-carboxylic acid]	low potency; also recorded: lose potency in the ATPase assay	do not inhibit BJAB cell viability	–
Nc1cccc(-c2ccc(-c3cc(C(=O)O)c4cc([N+](=O)[O-])ccc4n3)o2)c1 [Compound 47, 2-(5-(3-aminophenyl)furan-2-yl)-6-nitroquinoline-4-carboxylic acid]	low potency; also recorded: lose potency in the ATPase assay	do not inhibit BJAB cell viability	–
O=C(O)c1cc(-c2ccc(-c3ccc4c(c3)OCO4)o2)nc2ccc([N+](=O)[O-])cc12 [Compound 48, 2-(5-(benzo[d][1,3]dioxol-5-yl)furan-2-yl)-6-nitroquinoline-4-carboxylic acid]	lost all potency	–	–
O=C(O)c1cc(-c2ccc(-c3cccc4ccccc34)o2)nc2ccc([N+](=O)[O-])cc12 [Compound 49, 2-(5-(naphthalen-1-yl)furan-2-yl)-6-nitroquinoline-4-carboxylic acid]	about four-fold less potent than compound 28	–	–
O=C(O)c1cc(-c2ccc(-c3ccc(-c4ccccc4)cc3)o2)nc2ccc([N+](=O)[O-])cc12 [Compound 50, 2-(5-([1,1′-biphenyl]-4-yl)furan-2-yl)-6-nitroquinoline-4-carboxylic acid]	less potent than compound 28; also recorded: more potent than meta-substituted 51	–	–
O=C(O)c1cc(-c2ccc(-c3cccc(-c4ccccc4)c3)o2)nc2ccc([N+](=O)[O-])cc12 [Compound 51, 2-(5-([1,1′-biphenyl]-3-yl)furan-2-yl)-6-nitroquinoline-4-carboxylic acid]	less potent than compound 28	–	–
C[C@@H]1C[C@@H]([C@H](O)CC2CC(=O)NC(=O)C2)C(=O)[C@@H](C)C1 [Cycloheximide, reference compound]	–	–	effect on HCV IRES-mediated translation (Renilla luciferase) [3]: inhibits both cap-dependent and IRES-mediated translation; effect on cap-dependent translation (firefly luciferase) [4]: inhibits both cap-dependent and IRES-mediated translation
COC(=O)[C@H]1[C@@H](O)[C@@]2(O)c3c(OC)cc(O[C@@H]4O[C@@H]([C@H](O)CO)CO[C@H]4OC)cc3O[C@@]2(c2ccc(OC)cc2)[C@@H]1c1ccccc1 [silvestrol, reference compound]	–	–	effect on HCV IRES-mediated translation (Renilla luciferase) [3]: only show a modest effect on HCV IRES-dependent translation of Renilla luciferase; thermal stability of eIF4A in cells (CETSA) (eIF4A [5]): increased thermal stability of eIF4A; effect on cap-dependent translation (firefly luciferase) [4]: inhibit cap-dependent translation of firefly luciferase
